This note sets out measurements from US20230295201A1 (Gilead Sciences, Inc., priority 2020, published 2023).

Read-outs that look alike come from different tables or passages of the source.

For orientation: EC50 means the concentration needed to bring the measured effect to its halfway point.

What all share (type): cell-based
For assay [1], the system named is Dengue serotype 2 New Guinea C (NGC) strain. The experiment in a line: DENV-2 Huh-7 EC50 (qPCR in Huh7 cells). Put shortly: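 Huh7 cells infected 2 h at 37 °C with DENV-2 NGC at MOI 0.1, then plated with graded compound doses (0.25% DMSO) in triplicate. After 48 h, viral RNA quantified by duplex TaqMan RT-qPCR against GAPDH; EC50 normalized to positive control and no-compound wells.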

The subject of assay [2] is Dengue 2, New Guinea strain (NGC). The experiment in a line: DENV-2 moDC EC50 (qPCR in human monocyte-derived dendritic cells). As to conditions: moDCs. The method, then: Human monocyte-derived dendritic cells (moDCs) were derived from CD14+ monocytes (AllCells) cultured in Human Mo-DC Differentiation medium containing GM-CSF and IL-4 (Miltenyi Biotec). On day 7, moDCs were harvested by mechanical disruption, washed and suspended in serum-free RPMI. moDCs were infected with Vero-derived Dengue 2, New Guinea strain (NGC) at a MOI=0.1 for two hours in serum-free RPMI with gentle agitation at 37° C. Cells were washed and resuspended in 10% serum-containing RPMI (Gibco, supplemented with sodium pyruvate, NEAA, Penicillin-Streptomycin). 10^5 cells were plated in triplicate in 96-well plates with compounds dispensed at graded doses (Hewlett-Packard D300 Digital Dispenser). All wells were normalized to 0.25% DMSO. At 48 hours, cells were washed with 1×PBS and all supernatants removed. Total RNA was extracted using RNEasy 96 plates (Qiagen) and used to generate first-strand cDNA using XLT cDNA 5× Supermix (QuantaBio). cDNA was used as a template in a Taqman qPCR duplex reaction specific to DENV2 viral and GAPDH gene expression. EC50 values were determined using Prism Graphpad software, with normalization to a positive control and no compound negative control wells.
In general terms: Quantitative PCR measures a nucleic acid by following its amplification.

Assay [3] concerns HCV replicon 1B. Description: HCV Rep 1B EC50 (replicon luciferase). The procedure:
(§1) Compounds were serially diluted in ten steps of 1:3 dilutions in 384-well plates. All serial dilutions were performed in four replicates per compound within the same 384-well plate. […] To each well of a black polystyrene 384-well plate (Greiner Bio-one, Monroe, NC), 90 μL of cell culture medium (without Geneticin) containing 2000 suspended HCV replicon cells was added with a Biotek μFlow workstation. For compound transfer into cell culture plates, 0.4 μL of compound solution from the compound serial dilution plate was transferred to the cell culture plate on a Biomek FX workstation. The DMSO concentration in the final assay wells was 0.44%. The plates were incubated for 3 days at 37° C. with 5% CO2 and 85% humidity. The HCV replicon assay was a multiplex assay, able to assess both cytotoxicity and antireplicon activity from the same well. The CC50 assay was performed first. The media in the 384-well cell culture plate was aspirated, and the wells were washed four times with 100 μL of PBS each, using a Biotek ELX405 plate washer. A volume of 50 μL of a solution containing 400 nM calcein AM (Anaspec, Fremont, CA) in 1×PBS was added to each well of the plate with a Biotek μFlow workstation. The plate was incubated for 30 min at room temperature before the fluorescence signal (excitation 490 nm, emission 520 nm) was measured with a Perkin-Elmer Envision plate reader. The EC50 assay was performed in the same wells as the CC50 assay. The calcein-PBS solution in the 384-well cell culture plate was aspirated with a Biotek ELX405 plate washer. A volume of 20 μL of Dual-Glo luciferase buffer (Promega, Madison, WI) was added to each well of the plate with a Biotek μFlow Workstation. The plate was incubated for 10 min at room temperature. A volume of 20 μL of a solution containing a 1:100 mixture of Dual-Glo Stop & Glo substrate (Promega, Madison, WI) and Dual-Glo Stop & Glo buffer (Promega, Madison, WI) was added to each well of the plate with a Biotek μFlow Workstation. The plate was then incubated at room temperature for 10 min before the luminescence signal was measured with a Perkin-Elmer Envision Plate Reader.
On the technique in general: In antiviral work, replicon cells carry a viral genome segment that copies itself.

Assay [4] has as its system HCV replicon 2A. Description: HCV Rep 2A EC50 (replicon luciferase). The procedure:
as §1

Where [5] appears, read: Dengue virus, DENV2, Huh-7, 48 h.
Setting [6] is: Dengue virus, DENV2, Dendritic cell, 48 h.
[7] abbreviates: Hepatitis C virus, 72 h, read-out: HCV Rep 1B EC50, replicon cells, 3 days.
[8] abbreviates: Hepatitis C virus, 72 h, read-out: HCV Rep 2A EC50, replicon cells, 3 days.

Turning to `CCCCCCOC(=O)[C@H](C)NP(=O)(OC[C@@]1(C#N)O[C@@H](c2ccc3c(N)ncnn23)[C@H](O)[C@@H]1O)Oc1ccccc1` (stereo partly drawn) [Example 192, hexyl ((((2R,3S,4R,5S)-5-(4-aminopyrrolo[2,1-f][1,2,4]triazin-7-yl)-2-cyano-3,4-dihydroxytetrahydrofuran-2-yl)methoxy)(phenoxy)phosphoryl)-L-alaninate], the EC50 in assay [1] (setting [5]) worked out at 2760 nM; in assay [2] (setting [6]) it was 534 nM.

Regarding `C[C@H](N[P@](=O)(OC[C@@]1(C#N)O[C@@H](c2ccc3c(N)ncnn23)[C@H](O)[C@@H]1O)Oc1ccccc1)C(=O)O[C@H]1CC[C@H](C(F)(F)F)CC1` (single isomer, unassigned) [Example 18], the EC50 worked out at 1110 nM in assay [3] (setting [7]) and 1480 nM in assay [4] (setting [8]).

Take `CCOC(=O)[C@H](C)N[P@](=O)(OC[C@@]1(C#N)O[C@@H](c2ccc3c(N)ncnn23)[C@H](O)[C@@H]1O)Oc1ccccc1` [Example 29, Ethyl ((S)-(((2R,3S,4R,5S)-5-(4-aminopyrrolo[2,1-f][1,2,4]triazin-7-yl)-2-cyano-3,4-dihydroxytetrahydrofuran-2-yl)methoxy)(phenoxy)phosphoryl)-L-alaninate]: the figures for the EC50 in assay [1] (setting [5]) and in assay [2] (setting [6]) were 1880 nM and above 5000 nM, respectively.

Turning to `C[C@H](NP(=O)(OC[C@@]1(C#N)O[C@@H](c2ccc3c(N)ncnn23)[C@H](O)[C@@H]1O)Oc1ccccc1)C(=O)OCCC(C)(C)C` (single isomer, unassigned) [Example 252], the concentration giving a half-maximal response (EC50) in assay [3] (setting [7]) is 624 nM; in assay [1] (setting [5]), 697 nM; in assay [2] (setting [6]) it was 284 nM; in assay [4] (setting [8]), 1650 nM.

Turning to `C[C@H](N[P@](=O)(OC[C@@]1(C#N)O[C@@H](c2ccc3c(N)ncnn23)[C@H](O)[C@@H]1O)Oc1ccccc1)C(=O)OC1CCCCC1` (single isomer, unassigned) [Example 6], the EC50 is 793 nM in assay [3] (setting [7]), 1630 nM in assay [1] (setting [5]), above 6190 nM in assay [2] (setting [6]) and 1270 nM in assay [4] (setting [8]).

Take `CCCCCCCCCCCCCCCCOCCCOP(=O)(O)OC[C@@]1(C#N)O[C@@H](c2ccc3c(N)ncnn23)[C@H](O)[C@@H]1O` [Example 149, ((2R,3S,4R,5S)-5-(4-aminopyrrolo[2,1-f][1,2,4]triazin-7-yl)-2-cyano-3,4-dihydroxytetrahydrofuran-2-yl)methyl (3-(hexadecyloxy)propyl) hydrogen phosphate]: the concentration giving a half-maximal response (EC50) in assay [3] (Hepatitis C virus, 72 h, replicon cells, 3 days, read-out: HCV Rep 1B EC50) was 31100 nM; in assay [4] (Hepatitis C virus, 72 h, replicon cells, 3 days, read-out: HCV Rep 2A EC50) it was above 44400 nM.

For `C[C@H](NP(=O)(OC[C@@]1(C#N)O[C@@H](c2ccc3c(N)ncnn23)[C@H](O)[C@@H]1O)Oc1ccccc1)C(=O)OCC1CCCCC1` (single isomer, unassigned) [Example 248], the EC50 came out at 503 nM in assay [3] (read-out: HCV Rep 1B EC50, replicon cells, 3 days); 756 nM in assay [1] (48 hours); 1180 nM in assay [4] (read-out: HCV Rep 2A EC50, replicon cells, 3 days).

As for `C[C@H](NP(=O)(OC[C@@]1(C#N)O[C@@H](c2ccc3c(N)ncnn23)[C@H](O)[C@@H]1O)Oc1cccc2ccccc12)C(=O)OC1CCCCC1` (stereo partly drawn) [Example 203, cyclohexyl ((((2R,3S,4R,5S)-5-(4-aminopyrrolo[2,1-f][1,2,4]triazin-7-yl)-2-cyano-3,4-dihydroxytetrahydrofuran-2-yl)methoxy)(naphthalen-1-yloxy)phosphoryl)-L-alaninate], the concentration for a half-maximal effect (EC50) in assay [3] (setting [7]) was found to be 332 nM; in assay [1] (setting [5]), 1730 nM; in assay [2] (setting [6]), 599 nM; in assay [4] (setting [8]) it was 671 nM.

As to `C[C@H](NP(=O)(OC[C@@]1(C#N)O[C@@H](c2ccc3c(N)ncnn23)[C@H](O)[C@@H]1O)Oc1ccccc1)C(=O)OCCC(C)(C)C` (stereo partly drawn) [Example 251, 3,3-dimethylbutyl ((((2R,3S,4R,5S)-5-(4-aminopyrrolo[2,1-f][1,2,4]triazin-7-yl)-2-cyano-3,4-dihydroxytetrahydrofuran-2-yl)methoxy)(phenoxy)phosphoryl)-L-alaninate], the half-maximal effective concentration (EC50) stood at 595 nM in assay [3] (setting [7]), 529 nM in assay [1] (setting [5]), 116 nM in assay [2] (setting [6]) and 1110 nM in assay [4] (setting [8]).

As for `C[C@H](N[P@](=O)(OC[C@@]1(C#N)O[C@@H](c2ccc3c(N)ncnn23)[C@H](O)[C@@H]1O)Oc1ccccc1)C(=O)OCC(C)(C)C` [Example 94], the EC50 came to 278 nM in assay [3] (replicon cells, 3 days, read-out: HCV Rep 1B EC50); 451 nM in assay [1] (48 hours); 398 nM in assay [2] (48 hours); 493 nM in assay [4] (replicon cells, 3 days, read-out: HCV Rep 2A EC50).

As to `CCCCCCCCCCCCOC(=O)[C@H](C)NP(=O)(OC[C@@]1(C#N)O[C@@H](c2ccc3c(N)ncnn23)[C@H](O)[C@@H]1O)Oc1ccccc1` (stereo partly drawn) [Example 191, dodecyl ((((2R,3S,4R,5S)-5-(4-aminopyrrolo[2,1-f][1,2,4]triazin-7-yl)-2-cyano-3,4-dihydroxytetrahydrofuran-2-yl)methoxy)(phenoxy)phosphoryl)-L-alaninate], the EC50 amounted to 19700 nM in assay [3] (setting [7]), 13300 nM in assay [1] (setting [5]), 1070 nM in assay [2] (setting [6]) and 34100 nM in assay [4] (setting [8]).

As to `CCC(CC)COC(=O)[C@H](C)N[P@](=O)(OC[C@@]1(C#N)O[C@@H](c2ccc3c(N)ncnn23)[C@H](O)[C@@H]1O)Oc1ccccc1` (single isomer, unassigned) [Example 25], the concentration for a half-maximal effect (EC50) in assay [3] (setting [7]) was 443 nM; in assay [1] (setting [5]), 840 nM; in assay [2] (setting [6]), 524 nM; in assay [4] (setting [8]), 448 nM.

In the case of `CCCCCCCCCCCC(=O)OCCNP(=O)(OC[C@@]1(C#N)O[C@@H](c2ccc3c(N)ncnn23)[C@H](O)[C@@H]1O)Oc1ccccc1` (mixture of isomers) [Example 181, 2-(((((2R,3S,4R,5S)-5-(4-aminopyrrolo[2,1-f][1,2,4]triazin-7-yl)-2-cyano-3,4-dihydroxytetrahydrofuran-2-yl)methoxy)(phenoxy)phosphoryl)amino)ethyl dodecanoate], the concentration for a half-maximal effect (EC50) in assay [3] (setting [7]) amounted to 861 nM; in assay [1] (setting [5]), 795 nM; in assay [4] (setting [8]), 1680 nM.

`C[C@H](N[P@](=O)(OC[C@@]1(C#N)O[C@@H](c2ccc3c(N)ncnn23)[C@H](O)[C@@H]1O)Oc1ccccc1)C(=O)O[C@H]1CC[C@H](C(C)(C)C)CC1` (single isomer, unassigned) [Example 22] yielded an EC50 in assay [1] (setting [5]) of 665 nM.

For the compound `COC(=O)[C@H](C)N[P@](=O)(OC[C@@]1(C#N)O[C@@H](c2ccc3c(N)ncnn23)[C@H](O)[C@@H]1O)Oc1ccccc1` [Example 52, methyl ((S)-(((2R,3S,4R,5S)-5-(4-aminopyrrolo[2,1-f][1,2,4]triazin-7-yl)-2-cyano-3,4-dihydroxytetrahydrofuran-2-yl)methoxy)(phenoxy)phosphoryl)-L-alaninate], the EC50 in assay [3] (setting [7]) was found to be 3960 nM; in assay [1] (setting [5]) it was 5480 nM; in assay [4] (setting [8]), 7460 nM.

Consider `C[C@H](NP(=O)(OC[C@@]1(C#N)O[C@@H](c2ccc3c(N)ncnn23)[C@H](O)[C@@H]1O)Oc1ccccc1)C(=O)OCC1CCCCC1` (single isomer, unassigned) [Example 247], for which the EC50 in assay [3] (setting [7]) amounted to 665 nM; in assay [1] (setting [5]) it was 1280 nM; in assay [4] (setting [8]), 1680 nM.
